According to ChEMBL document CHEMBL5316306 (J Med Chem, 2023):
pEC50, pIC50: −log10 of the molar value. Active and inactive are the calls of the source. The calls are words filed in the database; no cut-off is given here.

Experiments:
[1] = target: T1, Proteasome Macropain subunit MB1 (Homo sapiens, UniProt P28074); assay: Inhibition of 20s constitutive proteasome beta-5c (unknown origin)
T1 sequence (P28074 whole entry): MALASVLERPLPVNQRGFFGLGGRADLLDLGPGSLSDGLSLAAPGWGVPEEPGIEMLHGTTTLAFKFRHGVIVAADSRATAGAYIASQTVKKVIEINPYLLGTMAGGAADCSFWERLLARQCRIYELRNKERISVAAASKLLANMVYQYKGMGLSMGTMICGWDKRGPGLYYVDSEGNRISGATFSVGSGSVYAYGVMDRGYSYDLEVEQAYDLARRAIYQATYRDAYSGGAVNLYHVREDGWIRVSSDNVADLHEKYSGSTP

[2] = target: T2, Proteasome subunit beta type-8 (Homo sapiens, UniProt P28062); assay: Inhibition of human 20s immunoproteasome beta-5i subunit
T2 sequence (P28062 whole entry): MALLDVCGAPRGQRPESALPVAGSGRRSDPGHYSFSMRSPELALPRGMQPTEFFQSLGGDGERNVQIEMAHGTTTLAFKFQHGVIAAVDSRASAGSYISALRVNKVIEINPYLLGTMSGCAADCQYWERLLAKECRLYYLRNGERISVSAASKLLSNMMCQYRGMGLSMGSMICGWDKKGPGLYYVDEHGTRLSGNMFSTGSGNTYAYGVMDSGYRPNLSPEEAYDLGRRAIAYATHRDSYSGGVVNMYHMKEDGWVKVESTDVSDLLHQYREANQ

[3] = target: T1, Proteasome Macropain subunit MB1; assay: Inhibition of human 20s constitutive proteasome beta-5c
[4] = tested on: PBMC; assay: Cytotoxicity against human PBMC cells expressing 20s immunoproteasome beta-5i after 72 hrs by celltitre-glo assay; assay type: functional, cell-based
[5] = tested on: RPMI-8226; assay: Synergistic cytotoxic activity against human RPMI-8226 cells after 72 hrs in presence of 0.25 uM of (S)-N5-(tert-butyl)-N1-((S)-1-(((4-fluoronaphthalen-1-yl)methyl)amino)-3-methoxy-1-oxopropan-2-yl)-2-((4-methylphenyl)sulfonamido)pentanediamide by celltitre-glo assay; assay type: functional, cell-based; conditions: RPMI-8226, 72 h
[6] = target: Trypsin (Homo sapiens) (UniProt P07477+P07478+P35030); assay: Inhibition of human trypsin at 33.3 uM; assay type: protein assay
[7] = tested on: RPMI-8226; assay: Cytotoxicity against human RPMI-8226 cells after 72 hrs by celltitre-glo assay; assay type: functional, cell-based; conditions: RPMI-8226, 72 h
[8] = target: T3, Proteasome subunit beta type-9 (Homo sapiens, UniProt P28065); assay: Inhibition of human 20s immunoproteasome beta-1i subunit
T3 sequence (P28065 whole entry): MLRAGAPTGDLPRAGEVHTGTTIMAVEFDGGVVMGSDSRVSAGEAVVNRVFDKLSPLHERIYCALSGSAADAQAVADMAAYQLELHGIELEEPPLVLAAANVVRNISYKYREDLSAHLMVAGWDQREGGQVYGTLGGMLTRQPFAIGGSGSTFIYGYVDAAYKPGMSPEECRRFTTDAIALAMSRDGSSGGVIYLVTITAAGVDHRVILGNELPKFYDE

[9] = target: T4, Proteasome Macropain subunit MB1 (Homo sapiens) (UniProt P28074); assay: Inhibition of human 20s constitutive proteasome beta-5c assessed as restoration of enzyme activity at 2 nM incubated for 1 hr followed by compound removal by dialysis measured after 1 hr
T4 sequence (whole entry): T1 sequence (P28074 whole entry)

[10] = target: T4, Proteasome Macropain subunit MB1 (Homo sapiens); assay: Time dependent inhibition of human 20s constitutive proteasome beta-5c assessed as restoration of enzyme activity at 10 nM using suc-LLVY-AMC as substrate incubated upto 90 mins
[11] = tested on: HepG2; assay: Cytotoxicity against human HepG2 cells after 72 hrs by celltitre-glo assay; assay type: functional, cell-based; conditions: HepG2, 72 h
[12] = tested on: MM1.S; assay: Synergistic cytotoxic activity against human MM1.S cells after 72 hrs in presence of 0.02 uM of (S)-N5-(tert-butyl)-N1-((S)-1-(((4-fluoronaphthalen-1-yl)methyl)amino)-3-methoxy-1-oxopropan-2-yl)-2-((4-methylphenyl)sulfonamido)pentanediamide by celltitre-glo assay; assay type: functional, cell-based
[13] = target: T5, Proteasome subunit beta type-8 (Homo sapiens) (UniProt P28062); assay: Time dependent inhibition of human 20s immunoproteasome beta-5i subunit assessed as restoration of enzyme activity at 250 nM using Ac-ANW-AMC as substrate incubated upto 90 mins
T5 sequence (whole entry): T2 sequence (P28062 whole entry)

[14] = target: T5, Proteasome subunit beta type-8 (Homo sapiens); assay: Inhibition of 20s immunoproteasome beta-5i in human PBMC cells incubated by proteasome glo assay kit analysis; assay type: cell-based; conditions: time <= 1.0 hrs
[15] = tested on: MM1.S; assay: Cytotoxicity against human MM1.S cells after 72 hrs by celltitre-glo assay; assay type: functional, cell-based
[16] = target: T6, Proteasome subunit beta type-10 (Homo sapiens, UniProt P40306); assay: Inhibition of human 20s immunoproteasome beta-2i subunit
T6 sequence (P40306 whole entry): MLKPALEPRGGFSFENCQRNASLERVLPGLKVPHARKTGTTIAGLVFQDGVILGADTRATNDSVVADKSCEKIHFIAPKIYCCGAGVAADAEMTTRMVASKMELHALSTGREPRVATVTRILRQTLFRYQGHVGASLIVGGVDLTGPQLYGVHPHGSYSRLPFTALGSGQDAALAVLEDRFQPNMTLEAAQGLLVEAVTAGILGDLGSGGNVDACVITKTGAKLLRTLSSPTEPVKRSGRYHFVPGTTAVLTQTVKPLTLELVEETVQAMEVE

[17] = target: Chymotrypsin (Homo sapiens) (UniProt Q99895+P17538+P40313+Q6GPI1); assay: Inhibition of human chymotrypsin at 11.1 uM; assay type: protein assay
[18] = target: T4, Proteasome Macropain subunit MB1 (Homo sapiens); assay: Inhibition of 20s constitutive proteasome beta-5c in human HepG2 cells incubated by proteasome glo assay kit analysis; assay type: cell-based; conditions: time <= 1.0 hrs
[19] = target: Procathepsin L (Homo sapiens) (UniProt P07711); assay: Inhibition of human cathepsin L at 100 uM
Chain of Procathepsin L (Homo sapiens) (P07711 114-333 limits assumed): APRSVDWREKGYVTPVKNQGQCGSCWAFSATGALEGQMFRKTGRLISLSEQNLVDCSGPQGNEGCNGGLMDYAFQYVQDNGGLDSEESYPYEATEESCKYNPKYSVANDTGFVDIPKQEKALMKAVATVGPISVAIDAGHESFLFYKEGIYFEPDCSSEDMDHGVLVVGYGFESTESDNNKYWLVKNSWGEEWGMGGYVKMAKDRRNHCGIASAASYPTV

[20] = target: T2, Proteasome subunit beta type-8; assay: Inhibition of 20s immunoproteasome beta-5i subunit (unknown origin)
[21] = target: T5, Proteasome subunit beta type-8 (Homo sapiens); conditions: dose 250.0 nM, time <= 90.0 min
[22] = target: T4, Proteasome Macropain subunit MB1 (Homo sapiens); assay: Inhibition of 20s constitutive proteasome beta-5c (unknown origin) assessed as recovery half life time
[23] = target: T4, Proteasome Macropain subunit MB1 (Homo sapiens); assay: Time dependent inhibition of human 20s constitutive proteasome beta-5c assessed as restoration of enzyme activity at 10 nM using suc-LLVY-AMC as substrate; conditions: time <= 90.0 min, TDE = time-dependent effect
[24] = tested on: RPMI-8226; assay: Synergistic cytotoxic activity against human RPMI-8226 cells after 72 hrs in presence of 0.5 uM of (S)-(3-((2-(2-(1H-indol-3-yl)-2-oxoacetamido)-4-(tert-butylamino)-4-oxobutanamido)methyl)phenyl)boronic acid by celltitre-glo assay; assay type: functional, cell-based
[25] = tested on: MM1.S; assay: Synergistic cytotoxic activity against human MM1.S cells after 72 hrs in presence of 0.01 uM of (S)-(3-((2-(2-(1H-indol-3-yl)-2-oxoacetamido)-4-(tert-butylamino)-4-oxobutanamido)methyl)phenyl)boronic acid by celltitre-glo assay; assay type: functional, cell-based

Row | pIC50 [2] | pIC50 [3] | SMILES | also measured
1 | – | – | COc1ccc(Cc2noc(CN(C(=O)COc3ccc(Br)cc3)C(C)C)n2)cc1OC | pIC50 [1]: 7.43
2 | < 4.00 | < 4.00 | Cc1ccc(S(=O)(=O)N[C@@H](CC(=O)NC(C)(C)C)C(=O)NCc2ccc(B(O)O)cc2)cc1 | –
3 | < 4.00 | < 4.00 | Cc1ccc(S(=O)(=O)N[C@@H](CC(=O)NC(C)(C)C)C(=O)NCc2cccc(C(=O)O)c2)cc1 | –
4 | < 4.00 | < 4.00 | Cc1ccc(S(=O)(=O)N[C@@H](CC(=O)NC(C)(C)C)C(=O)Nc2cccc(B(O)O)c2)cc1 | –
5 | 5.15 | 8.00 | CC(C)(C)NC(=O)C[C@H](NC(=O)C(=O)c1c[nH]c2ccccc12)C(=O)NCc1cccc(B(O)O)c1 | pEC50 [4]: < 4.30; pEC50 [5]: 6.76; inhibition [6]: inactive; pEC50 [7]: 5.78; pIC50 [8]: < 4.48; inhibition [9]: inactive; TDI [10]: inactive; pEC50 [11]: 5.49; pEC50 [12]: 8.00; TDI [13]: inactive; inhibition [14]: Dose-Dependent Effect; pEC50 [15]: 7.24; pIC50 [16]: < 4.48; inhibition [17]: inactive; inhibition [18]: Dose-Dependent Effect; inhibition [19]: inactive
6 | 4.24 | 5.59 | Cc1ccc(S(=O)(=O)N[C@@H](CC(=O)NC(C)(C)C)C(=O)NCc2ccc(B(O)O)o2)cc1 | –
7 | 4.64 | 5.42 | CC(C)(C)NC(=O)C[C@H](NC(=O)c1cc(-c2ccccc2)ccn1)C(=O)NCc1cccc(B(O)O)c1 | –
8 | < 4.00 | < 4.00 | Cc1ccc(S(=O)(=O)N[C@@H](CC(=O)NC(C)(C)C)C(=O)NCc2cccc(C(F)(F)F)c2)cc1 | –
9 | < 4.00 | < 4.00 | Cc1ncc(C(=O)N[C@@H](CC(=O)NC(C)(C)C)C(=O)NCc2cccc(B(O)O)c2)s1 | –
10 | < 4.00 | < 4.00 | Cc1ccc(S(=O)(=O)N[C@@H](CC(=O)NC(C)(C)C)C(=O)Nc2ccc(B(O)O)cc2)cc1 | –
11 | < 4.00 | < 4.00 | CC(C)(C)NC(=O)C[C@H](NC(=O)c1cnccn1)C(=O)NCc1cccc(B(O)O)c1 | –
12 | < 4.00 | < 4.00 | Cc1ccc(S(=O)(=O)N[C@@H](CC(=O)NC(C)(C)C)C(=O)NCc2cccc(O)c2)cc1 | –
13 | – | – | CC(C)C[C@H](NC(=O)CN1CCOCC1)C(=O)N[C@@H](C[C@H]1CC[C@H](C2CCCCC2)CC1)C(=O)N[C@@H](Cc1ccccc1)C(=O)N[C@@H](C)C(=O)[C@@]1(C)CO1 | pIC50 [20]: 4.64
14 | 4.24 | 5.85 | CC(C)(C)NC(=O)C[C@H](NC(=O)c1cc(Cl)ccc1Cl)C(=O)NCc1cccc(B(O)O)c1 | –
15 | < 4.00 | 6.62 | CC(C)(C)NC(=O)C[C@H](NC(=O)C(=O)c1ccccc1)C(=O)NCc1cccc(B(O)O)c1 | –
16 | – | – | CC(C)C[C@H](NC(=O)[C@H](Cc1ccccc1)NC(=O)c1cnccn1)B(O)O [BORTEZOMIB] | pEC50 [7]: 8.40; TDI [21]: Tde; pEC50 [11]: 7.89; TIME [22]: 1.83 h; TDI [23]: Tde; pEC50 [15]: 8.70
17 | 4.95 | 7.07 | CC(C)(C)NC(=O)CC[C@H](NC(=O)C(=O)c1c[nH]c2ccccc12)C(=O)NCc1cccc(B(O)O)c1 | pEC50 [7]: 4.82; pIC50 [8]: < 4.48; pEC50 [11]: 4.31; pEC50 [15]: 6.12; pIC50 [16]: < 4.48

Row | pIC50 [2] | pIC50 [3] | SMILES | also measured
18 | < 4.00 | 5.42 | CC(C)(C)NC(=O)C[C@H](NC(=O)c1ccccc1)C(=O)NCc1cccc(B(O)O)c1 | –
19 | < 4.00 | < 4.00 | Cc1ccc(S(=O)(=O)N[C@@H](CC(=O)NC(C)(C)C)C(=O)NCc2ccccc2)cc1 | –
20 | < 4.00 | 8.30 | CCCc1ccc(OCC(=O)N(Cc2nc(-c3cccnc3)no2)C(C)C)cc1 | pIC50 [20]: 5.66; pIC50 [1]: 7.57
21 | < 4.00 | < 4.00 | Cc1ccc(S(=O)(=O)N[C@@H](CC(=O)NC(C)(C)C)C(=O)NCc2ccco2)cc1 | –
22 | < 4.00 | 5.23 | Cc1cc(C(=O)N[C@@H](CC(=O)NC(C)(C)C)C(=O)NCc2cccc(B(O)O)c2)no1 | –
23 | – | – | COC[C@H](NC(=O)c1cc(C)on1)C(=O)N[C@@H](COC)C(=O)N[C@@H](CC(C)C)C(=O)[C@@]1(C)CO1 | pIC50 [20]: 6.52; pIC50 [1]: 7.70
24 | – | – | COC[C@H](NC(=O)[C@H](CCC(=O)NC(C)(C)C)NS(=O)(=O)c1ccc(C)cc1)C(=O)NCc1ccc(F)c2ccccc12 | pEC50 [7]: 6.16; pEC50 [24]: 8.22; pEC50 [25]: 6.90; pEC50 [15]: 6.90
25 | < 4.00 | 4.62 | CC(C)(C)NC(=O)C[C@H](NC(=O)C(=O)C1CC1)C(=O)NCc1cccc(B(O)O)c1 | –
26 | < 4.00 | 6.68 | Cc1ccc(S(=O)(=O)N[C@@H](CC(=O)NC(C)(C)C)C(=O)NCc2cccc(B(O)O)c2)cc1 | –
27 | < 4.00 | < 4.00 | Cc1ccc(S(=O)(=O)N[C@@H](CC(=O)NC(C)(C)C)C(=O)NCc2cccc(F)c2)cc1 | –
28 | < 4.00 | < 4.00 | CC(C)(C)NC(=O)C[C@H](NC(=O)CN1CCOCC1)C(=O)NCc1cccc(B(O)O)c1 | –
29 | 4.16 | 6.15 | CC(C)(C)NC(=O)C[C@H](NC(=O)Cc1c[nH]c2ccccc12)C(=O)NCc1cccc(B(O)O)c1 | –
30 | < 4.00 | < 4.00 | Cc1ccc(S(=O)(=O)N[C@@H](CC(=O)NC(C)(C)C)C(=O)NCc2cccs2)cc1 | –
31 | < 4.00 | < 4.00 | Cc1ccc(S(=O)(=O)N[C@@H](CC(=O)NC(C)(C)C)C(=O)NCc2ccc(B(O)O)s2)cc1 | –
32 | 4.34 | 5.52 | COC[C@H](NC(=O)C(=O)c1c[nH]c2ccccc12)C(=O)NCc1cccc(B(O)O)c1 | –
33 | 4.32 | 6.12 | CC(C)(C)NC(=O)C[C@H](NC(=O)CCc1ccc(F)cc1)C(=O)NCc1cccc(B(O)O)c1 | –
